We go through one compound from US9908877B2, “Imidazo[1,5-a]pyridinium ion fluorophores, and methods of making and using the same” (Indiana University Research and Technology Corporation, priority 2013, dated 2018).

Format in all cases: physicochemical
The nature of series [1]: Fluorescence quantum yield, integrating sphere. The procedure:
Method for Determining Quantum Yield
Quantum yield is determined using an integrating sphere attached to a QM-4-CW Spectrofluorometer using FeliX32 software (Photon Technology International).
The compounds were analyzed at 298° K according to the Method for Obtaining Ultraviolet-Visible Light Spectrum (30 μM acetonitrile) to obtain the maximum absorbance wavelength (λabs,max), Method for Obtaining Fluorescence Emission Spectrum (30 μM acetonitrile) to obtain the maximum emission wavelength (λem,max) and Method for Determining Quantum Yield (ΦF) (30 μM acetonitrile) at the concentration, in the solvent, and with the counter ion indicated in Table 1. The compounds included hydrogen at each R group that is not otherwise specified.
Compounds 6, 7, 9, 11-14 and 21 were analyzed according to: the Method for Obtaining Ultraviolet-Visible Light Spectrum to obtain the maximum absorbance wavelength (λabs,max), the Method for Obtaining Fluorescence Emission Spectrum to obtain the maximum emission wavelength (λem,max), and the Method for Determining Quantum Yield (ΦF) in the solvent and with the counter ion indicated in Table 3.

Series [2] is described as follows: Fluorescence response to pH in buffered water. Conditions: buffered water, 298 K, pH from 7.5 to 2.5. On the procedure: Stock solutions of each compound (having a concentration of from 1-5 mM) were prepared by dissolving the corresponding salts of the compounds in methanol or 1V, N-dimethylformamide, and then diluting the same with acetonitrile or buffered water having a pH of from 2.5 to 7.5 derived from 0.2 M […] and 0.1 M citric acid, to achieve a sample solution having a compound concentration of 30.0 μM.
The emission spectrum for each sample was obtained. The results are illustrated by the plot in FIG. 2A.
The emission spectrum for each sample was obtained. […] The results are illustrated in the plot of FIG. 2B.
The fluorescence emission spectrum of Compound 8 in water having a pH of 2.5 was also obtained and is illustrated by the curved line with a peak at 360 nm in FIG. 5B.
Compounds 10, 11, and 12 were each individually added, at a concentration of 30 μM, to water having a pH=7.5 and the emission spectra of each were obtained. […] As the pH was decreased from 7.5 to 2.5 in 0.5 pH unit increments, fluorescence emission at 600 nm remained relatively nonexistent and the intensity of the fluorescence emission at 400 nm increased in correlation to the decrease in pH. FIG. 8A illustrates the emission properties of Compound 12.

The nature of series [3]: Fluorescence emission in a series of organic solvents. Conditions: 30 μM, excited at 360 nm. The procedure: Compound 6 was placed in the series of organic solvents at a concentration of 30 μM, excited with radiation at 360 nm, and monitored for fluorescence emission. The organic solvent, intensity of fluorescence emission (ET), and maximum emission wavelength in nm and cm^−1, are set forth below in Table 2.

Where [4] appears, read: Dimethylsulfoxide (ET(30) 45.1).

Regarding `CCN(CC)c1ccc(-c2c3cccc[n+]3cn2-c2ccc(OC)cc2)cc1.[Cl-]` [Compound 6, 1-(4-(diethylamino)phenyl)-2-(4-methoxyphenyl)-2H-imidazo[1,5-a]pyridin-4-ium chloride], the “[…]F (quantum yield)” value was determined as 16% in series [1] (H2O (pH not given), 30 μM); 31% in series [1] (H2O pH = 2.5, 30 μM); 49% in series [1] (MeCN + 13.8 uL TFA, 30 μM); 59% in series [1] (MeCN, 30 μM). For the same compound, the “λem,max of the emission that decreases as pH decreases” value in series [2] amounted to 580 nm. For the same compound, the “λem,max of the emission that increases as pH decreases” value in series [2] worked out at 400 nm. Also, the “maximum emission Wavelength” value came out at 559 nm in series [3] (Acetonitrile (ET(30) 45.6)); 567 nm in series [3] (Benzene (ET(30) 34.3)); 533 nm in series [3] (Chloroform (ET(30) 39.1)); 535 nm in series [3] (Dichloromethane (ET(30) 40.7)); 567 nm in series [3] (setting [4]); 561 nm in series [3] (Hexane (ET(30) 31)). Further, the “maximum emission Wavelength” value in series [3] (Tetrahydrofuran (ET(30) 37.4)) is given as 541 nm; in series [3] (Toluene (ET(30) 33.9)), 568 nm; in series [3] (Water (ET(30) 63.1)), 576 nm. The maximum emission wavenumber in series [3] (Acetonitrile (ET(30) 45.6)) was 17889.09 cm⁻¹; in series [3] (Benzene (ET(30) 34.3)) it was 17636.68 cm⁻¹; in series [3] (Chloroform (ET(30) 39.1)), 18761.73 cm⁻¹; in series [3] (Dichloromethane (ET(30) 40.7)), 18691.59 cm⁻¹; in series [3] (setting [4]), 17636.68 cm⁻¹; in series [3] (Hexane (ET(30) 31)), 17825.31 cm⁻¹. Besides, the maximum emission wavenumber in series [3] (Tetrahydrofuran (ET(30) 37.4)) was 18484.29 cm⁻¹; in series [3] (Toluene (ET(30) 33.9)) it was 17605.63 cm⁻¹; in series [3] (Water (ET(30) 63.1)), 17361.11 cm⁻¹.
